# In paper PMC8496750, “Identification of the organic anion transporting polypeptides responsible for the hepatic uptake of the major metabolite of epyrifenacil, S‐3100‐CA, in mice” (Pharmacology Research & Perspectives, 2021):
# Key:
# mouse Oatp1a1 [1] = biological target: T1, mouse Oatp1a1 (Mus musculus, UniProt Q9QXZ6); settings: inhibitor at 100 μM
# T1 sequence (Q9QXZ6 1-670): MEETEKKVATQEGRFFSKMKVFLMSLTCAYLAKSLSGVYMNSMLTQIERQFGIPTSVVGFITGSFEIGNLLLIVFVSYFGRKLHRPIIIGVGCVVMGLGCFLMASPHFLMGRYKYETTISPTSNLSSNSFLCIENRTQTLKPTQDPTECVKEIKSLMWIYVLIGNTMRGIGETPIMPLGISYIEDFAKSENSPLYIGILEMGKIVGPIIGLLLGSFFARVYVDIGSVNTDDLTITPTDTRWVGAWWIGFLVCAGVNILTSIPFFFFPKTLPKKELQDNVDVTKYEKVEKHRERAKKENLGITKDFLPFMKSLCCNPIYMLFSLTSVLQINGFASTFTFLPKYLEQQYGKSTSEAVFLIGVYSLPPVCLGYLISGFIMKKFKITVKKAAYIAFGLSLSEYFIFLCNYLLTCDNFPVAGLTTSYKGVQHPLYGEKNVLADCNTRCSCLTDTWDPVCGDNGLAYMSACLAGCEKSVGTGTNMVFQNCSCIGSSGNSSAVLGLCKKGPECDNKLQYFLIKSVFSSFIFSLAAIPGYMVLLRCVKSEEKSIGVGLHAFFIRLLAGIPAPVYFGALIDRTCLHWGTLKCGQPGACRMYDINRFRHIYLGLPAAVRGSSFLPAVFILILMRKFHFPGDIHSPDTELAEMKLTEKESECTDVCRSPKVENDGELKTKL
# Experimental: (§1) 293FT cells were purchased from Thermo Fisher Scientific, Inc.. The cells were grown in Dulbecco's modified Eagle medium (supplemented with 4.5 g/L glucose and 2 mM L‐glutamine) at 37°C, 5% CO2, and 95% humidity. The cells were passaged 3 times per week by harvesting cells using trypsin and plating at a density of 1.0 × 10^4 cells/cm^2 in a 10 cm cell culture plate for maintenance culture. The 293FT cells were detached using trypsin and re‐seeded at a density of 2.5 × 10^4 cells/cm^2 in BioCoat™ Collagen I 6‐well plates (Corning Inc.) for transfection and then treated with 1.2 μg of plasmid vector and 3.2 μl of Lipofectamine™ 2000 Transfection Reagent (Thermo Fisher Scientific, Inc.) according to the manufacturer's instructions. After a 3‐h treatment, the transfection medium was replaced with a fresh cell culture medium and incubated at 37°C with 95% humidity and 5% CO2 until ready for the assay.
# (§2) Transport experiments were conducted approximately 24 h post‐transfection. The experiments were initiated by aspirating culture medium and addition of pre‐warmed radiolabeled substrate solution (final 1.0% of acetonitrile or 0.9% of ethanol in phosphate‐buffered saline (PBS[−])) to each well. After a 10‐min incubation, cells were washed twice with 1 ml of ice‐cold PBS(−) and lysed with 700 μl of 1.0 M NaOH for 3 h or more at room temperature. The lysate was transferred to a 1.5‐ml tube, and neutralized with 350 μl of 2.0 M HCl and 350 μl of 2.0% sodium dodecyl sulfate (SDS) solution. From the lysate, 1.0 ml was transferred to a vial containing 10 ml of Emulsifier Scintillator Plus to measure the radioactivity in the LSC. The protein concentration of the cell lysate was also measured using a Pierce™ BCA Protein Assay Kit (Thermo Fisher Scientific, Inc.), which was used to normalize, according to the cell number, the radioactivity in the cell lysate extract. The protein assay was performed in duplicate. Each sample type was assayed in triplicate wells, and each run was performed twice. […] Each sample type was assayed in triplicate wells.
# mouse Oatp1a1 [2] = biological target: T1, mouse Oatp1a1; assay: in vitro; settings: 293FT cells transiently transfected with mouse Oatp1a1, probe radiolabeled S‐3100‐CA
# Experimental: as §1, §2
# mouse Oatp1a4 = biological target: T2, mouse Oatp1a4 (Mus musculus, UniProt Q9EP96); assay: in vitro; settings: 293FT cells transiently transfected with mouse Oatp1a4, probe radiolabeled S‐3100‐CA
# T2 sequence (Q9EP96 1-670): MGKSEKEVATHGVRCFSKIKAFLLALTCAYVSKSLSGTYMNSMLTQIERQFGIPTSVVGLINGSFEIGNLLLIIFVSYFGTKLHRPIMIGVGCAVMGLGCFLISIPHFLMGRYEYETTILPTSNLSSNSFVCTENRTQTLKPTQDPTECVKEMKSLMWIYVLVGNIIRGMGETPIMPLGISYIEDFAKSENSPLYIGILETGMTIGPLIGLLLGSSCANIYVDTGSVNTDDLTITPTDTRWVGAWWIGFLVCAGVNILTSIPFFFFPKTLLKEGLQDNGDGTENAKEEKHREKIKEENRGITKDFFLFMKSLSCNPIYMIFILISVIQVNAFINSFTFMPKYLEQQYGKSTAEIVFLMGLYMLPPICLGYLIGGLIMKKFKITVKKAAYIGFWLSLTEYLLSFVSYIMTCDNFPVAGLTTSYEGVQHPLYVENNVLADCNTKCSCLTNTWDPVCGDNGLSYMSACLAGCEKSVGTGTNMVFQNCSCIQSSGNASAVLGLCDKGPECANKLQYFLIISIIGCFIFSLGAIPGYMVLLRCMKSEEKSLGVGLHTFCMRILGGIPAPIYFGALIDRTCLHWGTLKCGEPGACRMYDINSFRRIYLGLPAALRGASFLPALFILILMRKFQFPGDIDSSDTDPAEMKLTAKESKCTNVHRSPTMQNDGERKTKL
# Experimental: as §1, §2
smiles,measurement,setting,value
"CO[C@H]1/C=C/O[C@@]2(C)Oc3c(C)c(O)c4c(O)c(c(/C=N/N5CCN(C)CC5)c(O)c4c3C2=O)NC(=O)/C(C)=C\C=C\[C@H](C)[C@H](O)[C@@H](C)[C@@H](O)[C@@H](C)[C@H](OC(C)=O)[C@@H]1C [RIF, Rifampicin]","Uptake of S‐3100‐CA, % of that by vehicle‐treated cells",mouse Oatp1a1 [1],less than 40%
same,"inhibition at 10 min, 10 µM",mouse Oatp1a1 [2],> 50%
same,"inhibition at 10 min, 10 µM",mouse Oatp1a4,> 50%
